{"source": "patent US20060057669A1", "about": "“Inactive transcription factor tif-ia and uses thereof” (priority 2002, published 2006)", "key": {"Pol I transcription [1]": {"test_system": "Pol I transcription", "assay": "In vitro transcription: TIF-IA mutants restoring rDNA transcription of nuclear extract from density-arrested FM3A cells", "assay_type": "biochemical, murine", "description": "(A) Transcriptional activity of TIF-IA mutants in vitro. FLAG-tagged wild-type TIF-IA and the indicated single or double point mutants were overexpressed in HEK293T cells, immunopurified, and 20 and 40 ng were assayed for their capability to restore rDNA transcriptional activity of nuclear extract from density-arrested FM3A cells. The amount and purity of TIF-IA were estimated on silver-stained SDS-polyacrylamide gels and Western blots (data not shown).\n(A) Transcriptional activity of TIF-IAS199A and TIF-IAS199D in vitro. FLAG-tagged wild-type TIF-IA and the indicated mutants were immunopurified from HEK293T cells, and 30 and 60 ng were assayed for their capability to restore transcriptional activity of nuclear extract from density-arrested FM3A cells. The amount and purity of TIF-IA were estimated on silver-stained SDS-polyacrylamide gels (data not shown).\n(B) Transcriptional activity of TIF-IAS44A in vitro. FLAG-tagged wild-type TIF-IA and the indicated mutant were assayed for their transcriptional activity in vitro.\n(§1) Nuclear extracts were prepared from exponentially growing (8×10^5 cells/ml), density-arrested or PD98059-treated (CN Bioscience, Bad Soden, Germany) 40 μM, 0.5 hr) or rapamycin-treated FM3A cells (ATCC, Manassas, USA). 25 μl assays contained 50 ng of template DNA (pMr600/EcoRI), 30 μg nuclear extract proteins and 12 mM Hepes-KOH, [pH8.0], 0.1 mM EDTA, 5 mM MgCl2, 80 mM KCl, 10 mM creatine phosphate, 12% (v/v) glycerol, 0.66 mM each of ATP, GTP and CTP, 0.01 mM UTP and 0.5 μCi [α-^32P]UTP (5000 Ci/mmol). After incubation for 60 min at 30° C., RNA was extracted and analyzed on non-denaturing 5% polyacrylamide gels\nTIF-IA was immunopurified from untransfected NIH3T3 cells or from HEK293T cells overexpressing FLAG-tagged TIF-IA. 4×10^6 cells were lysed in 0.8 ml IP buffer (20 mM Tris-HCl [pH 7.4], 200 mM NaCl, 2 mM EDTA, 2 mM EGTA, 1% Triton X-100, 0.5 mM PMSF, 1 μg/ml aprotinin, 5 μg/ml leupeptin and 1 μg/ml pepstatin A), centrifuged at 10,000 g for 30 min, and the supernatants were incubated for 4 hr at 4° C. with either 10 μg anti-TIF-IA antibodies bound to 20 μl protein G-agarose or with anti-FLAG (M2) agarose (Sigma-Aldrich Corp., Missouri, USA). The immunocomplexes were successively washed with buffer AM (20 mM Tris-HCl [pH 8.0], 5 mM MgCl2, 0.1 mM EDTA, 20% glycerol) containing 400 and 100 mM KCl, respectively. The amount and purity of TIF-IA was estimated on silver-stained polyacrylamide gels and similar amounts of bead-bound TIF-IA were used in in vitro transcription assays. GST fusion proteins were expressed in E. coli BL21(DE3) and purified on Glutathione-Sepharose 4B according to the manufacturer's instructions.\nTo assess the functional relevance of S633 and S649 phosphorylation on transcriptional activity, the respective S→A and S→D single or double point mutants were purified from transfected cells and assayed for their capability to rescue transcription of extracts from density-arrested cells. […] Thus, phosphorylation of TIF-IA at S649 and S633 is required for transcriptional activity.\nPhosphorylation of peptide a should inhibit TIF-IA activity, while phosphorylation of peptide b, e.g. S44, should augment TIF-IA activity."}, "TIF-IB/SL1": {"test_system": "TIF-IB/SL1", "assay": "Co-immunoprecipitation of TIF-IB/SL1 with TIF-IA mutants from HEK293T cells", "assay_type": "binding, human", "description": "(§2) (B) A mutant that mimics phosphorylation of TIF-IA at S199 fails to interact with Pol I and TIF-IB. FLAG-tagged wild-type TIF-IA or the indicated point mutants were overexpressed in HEK293T cells and immunoprecipitated from cell lysates with anti-FLAG antibodies (M2 agarose). Co-precipitated Pol I and TIF-IB/SL1 were visualized on Western blots with anti-RPA116 and anti-TAFI110 antibodies.\n(§3) Immunoprecipitations were carried out from human cells overexpressing FLAG-tagged TIF-IA. Cells were lysed in IP buffer, cleared by centrifugation at 10,000×g for 30 min, and the supernatants were incubated for 4 hr at 4° C. with anti-FLAG (M2) agarose (Sigma). To analyze the interaction of TIF-IA with TIF-IB/SL1, the immunoprecipitates were washed with IP buffer and TIF-IB/SL1 was visualized on immunoblots with α-TAFI110 antibodies. To monitor the interaction of TIF-IA with Pol I, the immunoprecipitates were washed with IP buffer containing 600 mM NaCl and Pol I was analyzed on Western blots using antibodies against the second largest subunit of Pol I (RPA116) or PAF67 (Seither et al., J. Biol. Chem. 382 (2001), 1163-1170).\n(§4) Given the importance of mTOR-mediated alterations in the phosphorylation pattern on TIF-IA activity, one could predict that either phosphorylation of S199, dephosphorylation of S44 or both regulate the interaction of TIF-IA with the Pol I transcription apparatus. It was therefore examined whether the S→A or S→D point mutant(s) were capable of interacting with Pol I and/or TIF-IB/SL1. For this, TIF-IA was precipitated from cells overexpressing either FLAG-tagged wild-type TIF-IA or the respective S199 and S44 mutant(s), and co-precipitated Pol I and TIF-IB/SL1 were visualized on Western blots."}, "Pol I": {"test_system": "Pol I", "assay": "Co-immunoprecipitation of Pol I with TIF-IA mutants from HEK293T cells", "assay_type": "binding, human", "description": "as §2, §3, §4"}, "Pol I transcription [2]": {"test_system": "Pol I transcription", "assay": "In vitro transcription: TIF-IA mutants added to nuclear extract from exponentially growing FM3A cells", "assay_type": "biochemical, murine", "settings": "20 and 40 ng added to 15 ug nuclear extract", "description": "20 and 40 ng of the indicated TIF-IA mutants were added to 15 ug nuclear extract from exponentially growing FM3A cells and rDNA transcription was assayed.\nas §1\nGiven that phosphorylation of TIF-IA at serine 649 is essential for transcription, excess of TIF-IAS649A should impair Pol I transcription. To test this, we examined the effect of exogenous wild-type and mutant TIF-IA on transcriptional activity of extracts from exponentially growing cells."}, "HEK293T cells": {"test_system": "HEK293T cells", "assay": "Quantitative fluorimetric viability assay with calcein-AM", "assay_type": "cell-based", "settings": "24, 36, 48 and 60 hr after transfection; 2 μM calcein-AM", "description": "(B) Quantitative fluorimetric viability assay with calcein-AM. HEK293T cells were transfected with TIF-IA or the indicated point mutants. […] Viable cells were measured 24, 36, 48 and 60 hr after transfection by incubation with […] calcein-AM. The gradual increase in fluorescence intensity was recorded with a fluorescence multi-well plate reader for 20 min with an excitation wavelength of 485 nm and an emission wavelength of 530 nm. The proliferation rate of mock-transfected cells and cells overexpressing TIF-IA is shown at the left. Plots show the accumulation of calcein fluorescence (arbitrary units) against time. Growth rates calculated from linear regression curves are shown at the right. Values are presented as the mean±SD from three independent experiments performed in duplicates.\nConversion of calcein-AM (calcein acetoxymethyl ester, (CN Bioscience GmbH, Bad Soden, Germany) to calcein was used to measure cell proliferation. 12 hr after transfection, HEK293T cells were seeded to 96-well micro-plates at 1×10^4 cells/well. After 24, 36, 48 and 60 hr, cells were washed with PBS, incubated with 2 μM calcein-AM, and the gradual increase in fluorescence intensity within the cells was recorded by a fluorescence multi-well plate reader (CytoFluor Series 4000/TC, PerSeptive Biosystems, (Applied Biosystems, Forster City, USA) for 20 min in 1 min intervals. Excitation wavelength used for measurements of fluorescence was 485 nm with a bandwidth of 20 nm; emission wavelength was 530 nm with a bandwidth of 25 nm. Under the experimental conditions used, there is a direct correlation between the accumulation ratio of intracellular calcein fluorescence and the number of viable cells. The data from three independent experiments were analyzed by Sigmaplot and expressed as the mean±standard deviation. For statistical analysis, student's t test was used. Differences with a P<0.01 were considered statistically significant.\nGiven the functional significance of ERK/RSK-directed TIF-IA phosphorylation on Pol I transcription, mutations that enhance or abrogate TIF-IA activity may have a positive or negative effect on cell growth. To test this, HEK293T cells were transfected with cDNAs encoding wild-type or mutant TIF-IA which harbor single or double point mutations at S649 and S633. The expression of TIF-IA was estimated on Western blots and the cellular growth rate was measured by calcein-AM staining. Calcein-AM is a non-fluorescent, hydrophobic compound that is rapidly hydrolyzed by intracellular esterases releasing hydrophilic fluorescent calcein. Thus, cellular calcein fluorescence correlates with the amount of viable cells. […] Cells expressing FLAG-tagged wild-type or mutant TIF-IA were stained with FITC-conjugated anti-FLAG antibodies, identified by FACS and cell numbers were calculated by measuring the ratio of stained cells versus an internal standard. […] Conversely, the number of cells expressing TIF-IAS649A was 33% lower than the control. […] Taken together, the results reveal a striking correlation between phosphorylation of TIF-IA at serine 649, cellular rRNA synthetic activity and cell cycle progression."}, "[3]": {"settings": "S633/S649 mutants, 20 and 40 ng"}, "[4]": {"settings": "S199 and S44 mutants, 30 and 60 ng"}}, "data": [{"substance": "S633D: TIF-IA point mutant, serine 633 replaced by aspartic acid", "values": [{"measurement": "capability to rescue transcription of extracts from density-arrested cells", "setting": "Pol I transcription [1]; [3]", "value": "less active than wild-type TIF-IA"}]}, {"substance": "TIF-IAS199A: the mutant in which S199 was changed to alanine", "values": [{"measurement": "capability to rescue transcription of extracts from density-arrested cells", "setting": "Pol I transcription [1]; [4]", "value": "activated Pol I transcription like wild-type TIF-IA"}, {"measurement": "interaction with TIF-IB/SL1 (co-precipitated TAFI110)", "setting": "TIF-IB/SL1", "value": "interacted with both Pol I and TIF-IB/SL1"}, {"measurement": "interaction with Pol I (co-precipitated RPA116)", "setting": "Pol I", "value": "interacted with both Pol I and TIF-IB/SL1"}]}, {"substance": "TIF-IAS199D: TIF-IA mutant, replacement of S199 by aspartic acid", "values": [{"measurement": "capability to rescue transcription of extracts from density-arrested cells", "setting": "Pol I transcription [1]; [4]", "value": "abolished TIF-IA activity"}, {"measurement": "interaction with TIF-IB/SL1 (co-precipitated TAFI110)", "setting": "TIF-IB/SL1", "value": "no association of either Pol I or TIF-IB/SL1 could be detected"}, {"measurement": "interaction with Pol I (co-precipitated RPA116)", "setting": "Pol I", "value": "no association of either Pol I or TIF-IB/SL1 could be detected"}]}, {"substance": "TIF-IAS633A: TIF-IA point mutant, serine 633 replaced by alanine", "values": [{"measurement": "capability to rescue transcription of extracts from density-arrested cells", "setting": "Pol I transcription [1]; [3]", "value": "abolished TIF-IA activity"}, {"measurement": "effect on transcriptional activity of extracts from exponentially growing cells", "setting": "Pol I transcription [2]", "value": "suppressed transcription well below the basal level"}]}, {"substance": "TIF-IAS633AS649A: TIF-IA double mutant, serines 633 and 649 replaced by alanine", "values": [{"measurement": "capability to rescue transcription of extracts from density-arrested cells", "setting": "Pol I transcription [1]; [3]", "value": "abolished TIF-IA activity"}, {"measurement": "cellular growth rate by calcein-AM staining", "setting": "HEK293T cells", "value": "impaired cell growth"}]}, {"substance": "TIF-IAS633DS649D: TIF-IA double mutant, serines 633 and 649 replaced by aspartic acid", "values": [{"measurement": "capability to rescue transcription of extracts from density-arrested cells", "setting": "Pol I transcription [1]; [3]", "value": "TIF-IA activity was increased"}, {"measurement": "cellular growth rate by calcein-AM staining", "setting": "HEK293T cells", "value": "accelerated cell growth"}]}]}
